Results reported in ChEMBL document CHEMBL4368926, “Arylpyridines, arylpyrimidines and related compounds as potential modulator agents of the VEGF, hTERT and c-Myc oncogenes” (Bioorg Med Chem, 2019).

What was measured:
[1] = system: HT-29; assay: Cytotoxicity against human HT-29 cells assessed as decrease in cell viability after 2 days by MTT assay; format: functional, cell-based; settings: HT-29, 48 h
[2] = system: MCF7; assay: Cytotoxicity against human MCF7 cells assessed as decrease in cell viability after 2 days by MTT assay; format: functional, cell-based; settings: MCF7, 48 h
[3] = system: HEK293; assay: Cytotoxicity against HEK293 cells assessed as decrease in cell viability after 2 days by MTT assay; format: ADME, cell-based; settings: Homo sapiens, HEK293, 48 h
[4] = Selectivity index, ratio of IC50 for HEK293 cells to IC50 for human HT-29 cells; format: toxicity; settings: HEK293 cells versus HT-29 cells, read-out: Ratio IC50
[5] = Selectivity index, ratio of IC50 for HEK293 cells to IC50 for human MCF7 cells; settings: HEK293 cells versus MCF7 cells
[6] = system: HT-29; assay: Down-regulation of hTERT mRNA expression in human HT-29 cells assessed as hTERT mRNA level at 10 uM after 48 hrs by RT-qPCR analysis (reference value: 100%); format: functional
[7] = system: HT-29; assay: Down-regulation of c-Myc mRNA expression in human HT-29 cells assessed as c-Myc mRNA level at 10 uM after 48 hrs by RT-qPCR analysis (reference value: 100%); format: functional
[8] = system: HT-29; assay: Down-regulation of VEGFRA mRNA expression in human HT-29 cells assessed as VEGFRA mRNA level at 10 uM after 48 hrs by RT-qPCR analysis (reference value: 100%); format: functional
[9] = system: HT-29; assay: Down-regulation of c-Myc protein expression in human HT-29 cells assessed as c-Myc protein level at 10 uM after 48 hrs by ELISA (reference value: 100%); format: functional
[10] = system: HT-29; assay: Down-regulation of VEGFA protein expression in human HT-29 cells assessed as VEGFA protein level at 10 uM after 48 hrs by ELISA (reference value: 100%); format: functional

## COc1cccc(N2CCCCC2)c1
[1]
  IC50: 26 µM
[2]
  IC50: 160 µM
[3]
  IC50: > 400 µM
[4]
  selectivity ratio: 20
[5]
  selectivity ratio: 3
[6]
  Activity: 30%
[7]
  Activity: 63%
[8]
  Activity: 44%
[9]
  Activity: 100%
[10]
  Activity: 42%
